{
  "source": "patent US12570675B2",
  "about": "“Boronic acid compounds” (LG CHEM, LTD., priority 2020, dated 2026)",
  "key": {"[1]": {"biological_target": "Proteasome chymotrypsin-like activity (S26 protein from RPMI8226 cells) (Homo sapiens, UniProt P28074)", "sequence (P28074 60-263 limits assumed)": "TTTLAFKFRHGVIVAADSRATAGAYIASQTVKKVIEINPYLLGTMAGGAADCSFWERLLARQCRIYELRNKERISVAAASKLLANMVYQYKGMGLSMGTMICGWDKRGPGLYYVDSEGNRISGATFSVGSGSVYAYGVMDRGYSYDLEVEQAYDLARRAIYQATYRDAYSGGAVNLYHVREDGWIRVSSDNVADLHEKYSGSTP", "type": "biochemical", "conditions": "S26 protein from RPMI8226 cell extract 2 ug/well, substrate 20 uM, 37° C., 90 minutes; read-out: Proteasome chymotrypsin-like activity inhibition IC50", "outline": "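Inhibition is measured in crude proteasome (S26) from RPMI8226 cells at 2 ug/well, using 20 uM substrate specific to each activity: Suc-LLVY-AMC for chymotrypsin-like, Z-LLE-AMC for caspase-like. Compounds span a dilution series from 10 uM.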"}, "[2]": {"biological_target": "Proteasome caspase-like activity (S26 protein from RPMI8226 cells) (Homo sapiens (Human), UniProt P28072)", "sequence (P28072 whole entry)": "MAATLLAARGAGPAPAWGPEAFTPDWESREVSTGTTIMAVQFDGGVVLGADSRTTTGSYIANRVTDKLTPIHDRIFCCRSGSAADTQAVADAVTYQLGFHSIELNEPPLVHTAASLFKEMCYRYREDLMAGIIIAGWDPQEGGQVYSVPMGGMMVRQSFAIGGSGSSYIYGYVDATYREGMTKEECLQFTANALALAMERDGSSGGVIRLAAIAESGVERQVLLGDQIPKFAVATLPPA", "assay": "Proteasome caspase-like activity inhibition (Z-Leu-Leu-Glu-AMC fluorogenic substrate, RPMI8226 cell extract)", "type": "biochemical", "conditions": "S26 protein from RPMI8226 cell extract 2 ug/well, substrate 20 uM, 37° C., 90 minutes", "procedure": "The abilities to inhibit the proteasome activity of the compounds described in the Examples of the present invention and boronic acid drugs were evaluated as follows.\nRPMI8226 cells, which is a multiple myeloma cell line, were cultured and then separated by a centrifuge, and washed twice with phosphate buffered saline (PBS). 20 mM of a tris-HCl (pH 8.0) buffer solution was added to the washed cells, and the cells were disrupted by a homogenizer and centrifuged to obtain S26 protein from the supernatant. Suc-Leu-Leu-Val-Tyr-AMC, for a fluorogenic substrate for the chymotrypsin-like activity of the proteasome, and Z-Leu-Leu-Glu-AMC, for a fluorogenic substrate for the caspase-like activity, were purchased from Calbiochem, EMD Millipore and used. Into each well of a 96-well plate (opaque, black round bottom), 20 ul of the S26 protein (final RPMI8226 cell extract concentration: 2 ug/well), 10 ul of S26 proteasome inhibitor serially diluted from 10 uM (final DMSO concentration: 0.5%), and 20 ul of the fluorogenic substrate for the proteasome chymotrypsin-like or caspase-like activity (final concentration: 20 uM) were added and mixed and allowed to react in a 37° C. incubator for 90 minutes. The fluorescence of the fluorogenic substrate was measured by FlexStation II Fluorometer (Molecular Devices). The fluorescence inhibited by the compound diluted at each concentration was measured as the relative percentage value for the amount obtained from the treatment only with the S26 protein and the fluorogenic substrate. IC50 (inhibitory concentration 50) was expressed in terms of a concentration that inhibits 50% of the maximum fluorescence induced by the fluorogenic substrate."}},
  "data": [
    {"molecule": "Cc1nc2ccccn2c1C(=O)NCC1=NOC(Cc2ccccc2)(C(=O)N[C@@H](CC(C)C)B(O)O)C1", "note": "(stereo partly drawn) [Example 133, ((1R)-1-(5-benzyl-3-((2-methylimidazo[1,2-a]pyridin-3-carboxamido)methyl)-4,5-dihydroisoxazol-5-carboxamido)-3-methylbutyl)boronic acid]", "values": [
      {"measurement": "IC50", "setting": "[1]", "value": "< 10", "unit": "nM"},
      {"measurement": "IC50", "setting": "[2]", "value": "> 500", "unit": "nM"}
    ]},
    {"molecule": "CC(C)C[C@H](NC(=O)C1(Cc2ccccc2)CC(CNC(=O)c2cccc3c2ccn3C(C)C)=NO1)B(O)O", "note": "(stereo partly drawn) [Example 134, ((1R)-1-(5-benzyl-3-((1-isopropyl-1H-indol-4-carboxamido)methyl)-4,5-dihydroisoxazol-5-carboxamido)-3-methylbutyl)boronic acid]", "values": [
      {"measurement": "IC50", "setting": "[1]", "value": "< 10", "unit": "nM"},
      {"measurement": "IC50", "setting": "[2]", "value": "> 500", "unit": "nM"}
    ]},
    {"molecule": "CC(C)C[C@H](NC(=O)C1(Cc2ccccc2)CC(CNC(=O)c2cccc3c2ccn3C)=NO1)B(O)O", "note": "(stereo partly drawn) [Example 138, ((1R)-1-(5-benzyl-3-((1-methyl-1H-indol-4-carboxamido)methyl)-4,5-dihydroisoxazol-5-carboxamido)-3-methylbutyl)boronic acid]", "values": [
      {"measurement": "IC50", "setting": "[1]", "value": "< 10", "unit": "nM"},
      {"measurement": "IC50", "setting": "[2]", "value": "> 500", "unit": "nM"}
    ]},
    {"molecule": "Cc1nc(C)c(C(=O)NCC2=NOC(COc3ccccc3)(C(=O)N[C@@H](CC(C)C)B(O)O)C2)s1", "note": "(stereo partly drawn) [Example 141, ((1R)-1-(3-((2,4-dimethylthiazol-5-carboxamido)methyl)-5-(phenoxymethyl)-4,5-dihydroisoxazol-5-carboxamido)-3-methylbutyl)boronic acid]", "values": [
      {"measurement": "IC50", "setting": "[1]", "value": "< 10", "unit": "nM"},
      {"measurement": "IC50", "setting": "[2]", "value": "> 500", "unit": "nM"}
    ]},
    {"molecule": "CC(C)C[C@H](NC(=O)C1(Cc2ccccc2)CC(CNS(=O)(=O)c2cc(Cl)ccc2Cl)=NO1)B(O)O", "note": "(stereo partly drawn) [Example 143, ((1R)-1-(5-benzyl-3-(((2,5-dichlorophenyl)sulfonamido)methyl)-4,5-dihydroisoxazol-5-carboxamido)-3-methylbutyl)boronic acid]", "values": [
      {"measurement": "IC50", "setting": "[1]", "value": "< 10", "unit": "nM"},
      {"measurement": "IC50", "setting": "[2]", "value": "> 500", "unit": "nM"}
    ]},
    {"molecule": "CC(C)C[C@H](NC(=O)C1(Cc2ccccc2)CC([C@H](C)NC(=O)c2nccc3ccccc23)=NO1)B(O)O", "note": "(stereo partly drawn) [Example 145, ((1R)-1-(5-benzyl-3-((S)-1-(isoquinolin-1-carboxamido)ethyl)-4,5-dihydroisoxazol-5-carboxamido)-3-methylbutyl)boronic acid]", "values": [
      {"measurement": "IC50", "setting": "[1]", "value": "< 10", "unit": "nM"},
      {"measurement": "IC50", "setting": "[2]", "value": "> 2500", "unit": "nM"}
    ]},
    {"molecule": "CC(C)C[C@H](NC(=O)C1(Cc2ccccc2)CC([C@@H](NC(=O)c2nccc3ccccc23)C(C)C)=NO1)B(O)O", "note": "(stereo partly drawn) [Example 148, ((1R)-1-(5-benzyl-3-((S)-1-(isoquinolin-1-carboxamido)-2-methylpropyl)-4,5-dihydroisoxazol-5-carboxamido)-3-methylbutyl)boronic acid]", "values": [
      {"measurement": "IC50", "setting": "[1]", "value": "< 25", "unit": "nM"},
      {"measurement": "IC50", "setting": "[2]", "value": "> 1000", "unit": "nM"}
    ]},
    {"molecule": "Cc1cnc(C(=O)NCC2=NOC(Cc3ccccc3)(C(=O)N[C@@H](CC(C)C)B(O)O)C2)cn1", "note": "(stereo partly drawn) [Example 151, [(1R)-1-[[5-benzyl-3-[[(5-methylpyrazin-2-carbonyl)amino]methyl]-4H-1,2-oxazol-5-carbonyl]amino]-3-methyl-butyl]boronic acid]", "values": [
      {"measurement": "IC50", "setting": "[1]", "value": "< 10", "unit": "nM"},
      {"measurement": "IC50", "setting": "[2]", "value": "> 250", "unit": "nM"}
    ]},
    {"molecule": "CC(C)C[C@H](NC(=O)C1(Cc2ccccc2)CC([C@H](CC(C)C)NC(=O)c2nccc3ccccc23)=NO1)B(O)O", "note": "(stereo partly drawn) [Example 152, ((1R)-1-(5-benzyl-3-((S)-1-(isoquinolin-1-carboxamido)-3-methylbutyl)-4,5-dihydroisoxazol-5-carboxamido)-3-methylbutyl)boronic acid]", "values": [
      {"measurement": "IC50", "setting": "[1]", "value": "< 10", "unit": "nM"},
      {"measurement": "IC50", "setting": "[2]", "value": "> 1000", "unit": "nM"}
    ]},
    {"molecule": "COC[C@H](NC(=O)c1nccc2ccccc12)C1=NOC(Cc2ccccc2)(C(=O)N[C@@H](CC(C)C)B(O)O)C1", "note": "(stereo partly drawn) [Example 153, ((1R)-1-(5-benzyl-3-((R)-1-(isoquinolin-1-carboxamido)-2-methoxyethyl)-4,5-dihydroisoxazol-5-carboxamido)-3-methylbutyl)boronic acid]", "values": [
      {"measurement": "IC50", "setting": "[1]", "value": "< 10", "unit": "nM"},
      {"measurement": "IC50", "setting": "[2]", "value": "> 500", "unit": "nM"}
    ]},
    {"molecule": "Cc1ccccc1CC1(C(=O)N[C@@H](CC(C)C)B(O)O)CC(CNC(=O)c2nccc3ccccc23)=NO1", "note": "(stereo partly drawn) [Example 154, ((1R)-1-(3-((isoquinolin-1-carboxamido)methyl)-5-(2-methylbenzyl)-4,5-dihydroisoxazol-5-carboxamido)-3-methylbutyl)boronic acid]", "values": [
      {"measurement": "IC50", "setting": "[1]", "value": "< 10", "unit": "nM"},
      {"measurement": "IC50", "setting": "[2]", "value": "> 500", "unit": "nM"}
    ]},
    {"molecule": "Cc1cccc(C(=O)NCC2=NOC(Cc3ccccc3)(C(=O)N[C@@H](CC(C)C)B(O)O)C2)n1", "note": "(stereo partly drawn) [Example 160, ((1R)-1-(5-benzyl-3-((6-methylpicolinamido)methyl)-4,5-dihydroisoxazol-5-carboxamido)-3-methylbutyl)boronic acid]", "values": [
      {"measurement": "IC50", "setting": "[1]", "value": "< 10", "unit": "nM"},
      {"measurement": "IC50", "setting": "[2]", "value": "> 500", "unit": "nM"}
    ]},
    {"molecule": "CC(C)C[C@H](NC(=O)C1(CCc2ccccc2)CC(CNC(=O)c2nccc3ccccc23)=NO1)B(O)O", "note": "(stereo partly drawn) [Example 162, ((1R)-1-(3-((isoquinolin-1-carboxamido)methyl)-5-penetyl-4,5-dihydroisoxazol-5-carboxamido)-3-methylbutyl)boronic acid]", "values": [
      {"measurement": "IC50", "setting": "[1]", "value": "< 25", "unit": "nM"},
      {"measurement": "IC50", "setting": "[2]", "value": "> 1000", "unit": "nM"}
    ]},
    {"molecule": "CC(C)C[C@H](NC(=O)C1(Cc2ccccc2F)CC(CNC(=O)c2nccc3ccccc23)=NO1)B(O)O", "note": "(stereo partly drawn) [Example 170, ((1R)-1-(5-(2-fluorobenzyl)-3-((isoquinolin-1-carboxamido)methyl)-4,5-dihydroisoxazol-5-carboxamido)-3-methylbutyl)boronic acid]", "values": [
      {"measurement": "IC50", "setting": "[1]", "value": "< 10", "unit": "nM"},
      {"measurement": "IC50", "setting": "[2]", "value": "> 1000", "unit": "nM"}
    ]},
    {"molecule": "CC(C)C[C@H](NC(=O)C1(Cc2ccccc2)CC(CNC(=O)c2ccnn2C(C)C)=NO1)B(O)O", "note": "(stereo partly drawn) [Example 171, ((1R)-1-(5-benzyl-3-((1-isopropyl-1H-pyrazol-5-carboxamido)methyl)-4,5-dihydroisoxazol-5-carboxamido)-3-methylbutyl)boronic acid]", "values": [
      {"measurement": "IC50", "setting": "[1]", "value": "< 10", "unit": "nM"},
      {"measurement": "IC50", "setting": "[2]", "value": "> 500", "unit": "nM"}
    ]},
    {"molecule": "CC(C)C[C@H](NC(=O)C1(Cc2ccc(F)cc2F)CC(CNC(=O)c2nccc3ccccc23)=NO1)B(O)O", "note": "(stereo partly drawn) [Example 178, ((1R)-1-(5-(2,4-difluorobenzyl)-3-((isoquinolin-1-carboxamido)methyl)-4,5-dihydroisoxazol-5-carboxamido)-3-methylbutyl)boronic acid]", "values": [
      {"measurement": "IC50", "setting": "[1]", "value": "< 10", "unit": "nM"},
      {"measurement": "IC50", "setting": "[2]", "value": "> 1000", "unit": "nM"}
    ]},
    {"molecule": "CC(C)C[C@H](NC(=O)C1(Cc2ccccc2)CC(CNC(=O)c2ccc(C(F)(F)F)nc2)=NO1)B(O)O", "note": "(stereo partly drawn) [Example 179, ((1R)-1-(5-benzyl-3-((6-(trifluoromethyl)nicotinamido)methyl)-4,5-dihydroisoxazol-5-carboxamido)-3-methylbutyl)boronic acid]", "values": [
      {"measurement": "IC50", "setting": "[1]", "value": "< 10", "unit": "nM"},
      {"measurement": "IC50", "setting": "[2]", "value": "> 500", "unit": "nM"}
    ]},
    {"molecule": "CC(C)C[C@H](NC(=O)C1(Cc2ccccc2)CC(CNC(=O)c2cccc(C(F)(F)F)n2)=NO1)B(O)O", "note": "(stereo partly drawn) [Example 186, ((1R)-1-(5-benzyl-3-((6-(trifluoromethyl)picolinamido)methyl)-4,5-dihydroisoxazol-5-carboxamido)-3-methylbutyl)boronic acid]", "values": [
      {"measurement": "IC50", "setting": "[1]", "value": "< 10", "unit": "nM"},
      {"measurement": "IC50", "setting": "[2]", "value": "> 1000", "unit": "nM"}
    ]},
    {"molecule": "CC(C)C[C@H](NC(=O)C1(Cc2cccc(F)c2)CC(CNC(=O)c2nccc3ccccc23)=NO1)B(O)O", "note": "(stereo partly drawn) [Example 187, ((1R)-1-(5-(3-fluorobenzyl)-3-((isoquinolin-1-carboxamido)methyl)-4,5-dihydroisoxazol-5-carboxamido)-3-methylbutyl)boronic acid]", "values": [
      {"measurement": "IC50", "setting": "[1]", "value": "< 10", "unit": "nM"},
      {"measurement": "IC50", "setting": "[2]", "value": "> 500", "unit": "nM"}
    ]},
    {"molecule": "CC(C)C[C@H](NC(=O)C1(Cc2ccccc2)CC(CNC(=O)c2cnn(C(C)C)c2)=NO1)B(O)O", "note": "(stereo partly drawn) [Example 188, ((1R)-1-(5-benzyl-3-((1-isopropyl-1H-pyrazol-4-carboxamido)methyl)-4,5-dihydroisoxazol-5-carboxamido)-3-methylbutyl)boronic acid]", "values": [
      {"measurement": "IC50", "setting": "[1]", "value": "< 10", "unit": "nM"},
      {"measurement": "IC50", "setting": "[2]", "value": "> 1000", "unit": "nM"}
    ]}
  ]
}
